# From patent US4080467A, “Pharmaceutical compositions comprising 1,3-dithiolan-2-ylidene malonate derivatives” (Nihon Nohyaku Co., Ltd., priority 1976, dated 1978)
# Legend:
# [1] = system: fatty liver (carbon tetrachloride); experiment: Therapeutic effect on fatty liver (carbon tetrachloride model); type: in vivo, male rat (35 week-old, SD strain); details: for Degree of fatty liver (histopathological examination): 10 days, one symbol per animal
# Protocol: Carbon tetrachloride also induces fatty liver, but the picture of disease differs from the case of ethionine-induced fatty liver. Carbon tetrachloride is generally considered to damage microsome and thereby to inhibit protein synthesis and induce fatty liver.
# Carbon tetrachloride was subscutaneously administered to 35 week-old male rat (SD strain) for 4 days at the dose of 1 ml/kg. The treated animals were left for 3 days after the last administration to maximize the manifestation of fatty liver.
# Administration of the compounds of this invention was commenced on the fourth day after the administration of carbon tetrachloride was completed. It was orally given everyday for 10 days at the dose of 50 or 250 mg/kg. On the 11th day, the animals were sacrificed. The therapeutic effect was evaluated by determining the content of lipid in the liver (triglyceride and total lipid) and examining the histopathological changes. Triglyceride and total lipid were determined colorimetrically by chromotropic acid method and Bragdon's oxidation method, respectively.
# Indices for the histopathological change is as follows.
# [2] = Effect on concentration of ethyl alcohol in the blood; type: in vivo, mice; details: 250 mg/kg oral 6 h before ethyl alcohol 1,000 mg/kg
# Protocol: The test compounds are dissolved or suspended in olive oil and administered orally at the dose of 250 mg/kg to the mice. After 6 hours, 1,000 mg/kg of ethyl alcohol was given orally. Blood was taken in a capillary from caudal vein at the time indicated in the results. The plasma was obtained by centrifugation. The concentration of ethyl alcohol in the plasma was measured by FID type gas liquid chromatography. Five mice were used for each group.
# [3] = Effect on glucose metabolism (blood sugar after glucose load); type: in vivo, mice; details: for Blood Sugar: 250 mg/kg oral 6 h before glucose 4.0 g/kg
# Protocol: The test compounds dissolved in olive oil and administered orally at the dose of 250 mg/kg to the mice. After 6 hours, 4.0 g/kg of glucose was orally administered. The same amount of glucose was given to the control animals. 0.02 ml of blood was taken from caudal vein of the mice at 30, 60, 90 and 120 min. after glucose administration. Blood sugar was measured by the procedure of Somogyi-Nelson. Number of animals used was 5 to 6 mice for each treatment.
# [4] = system: bile flow and biliary salt; experiment: Cholagogic action: bile flow and excretion of biliary salt; type: in vivo, male rat (4 week-aged, SD-JCL strain); details: 200 mg/kg oral; for bile flow / excretion of biliary salt: before treatment = 100
# Protocol: The male rat (4 week-aged, SD-JCL strain) was anesthetized with sodium pentobarbital (37.5 mg/kg, intraperitoneal injection). The abdominal cavity was opened through a midline incision. The common bile duct was catheterized with polyethylene tube o.d. 0.8 mm. The catheter was brought to the outside through the abdominal incision wound prior to closing. Bile was collected from the catheter continuously with time intervals of one hour. The quantity of bile produced in one hour was determined by weighing and that of biliary salt was determined by enzymatic method (Ikagaku Jikkenho Koza 1B, Biological Constituents II, edited by Tamio YAMAKAWA). The amount of biliary salts was represented as cholic acid equivalent.
# In the representation of the results, the quantities of bile and biliary salts produced in one hour prior to the administration of drug were taken as 100. The compound of this invention was orally administered at the dose of 200 mg/kg. As reference anethol trithion was used.
# [5] = Acute oral toxicity to male mice (LD50); details: mouse, in vivo
# [6] = system: cirrhosis (carbon tetrachloride); experiment: Therapeutic effect on cirrhosis (carbon tetrachloride); type: in vivo, male rat (4 week-old SD-strain); details: for Degree of cirrhosis (histopathological examination): 2000 ppm diet, one symbol per animal; for p-GOT activity / p-GPT activity: diet containing 2000 ppm
# Protocol: The therapeutic effect of the compound of this invention on cirrhosis, which had been caused by carbon tetrachloride administration, was examined.
# A 10% solution of carbon tetrachloride in olive oil was administered to the male rat (4 week-old SD-strain) intraperitoneally at the dose of 0.5 ml carbon tetrachloride/kg twice a week for a period of 10 weeks, to induce cirrhosis. Four days after the final administration of carbon tetrachloride, the formation of pseudo-lobulus was confirmed. Then the diseased animals were divided into two groups. Therapeutic group was submitted a diet containing 2000 ppm of Compound 4, while the positive control group was submitted a normal diet. Control group, to which olive oil alone had been administered, was submitted a normal diet.
# At 1, 2, 4 and 8 weeks after beginning of Compound 4 feeding, 5 animals from each group were sacrificed, and the therapeutic effect on cirrhosis was evaluated by examining plasma transaminase activity (p-GPT and p-GOT, Reitman-Frankel method) and observing histopathological changes.
# Degree of cirrhosis in the histopathological examination was graded as follows: […]
# [7] = 50 mg/kg oral everyday for 10 days
# [8] = 250 mg/kg oral everyday for 10 days
compound,measurement,setting,value
"CC(C)OC(=O)C(C(=O)OC(C)C)=C1SCCS1 [Compound 4, Diisopropyl 1,3-dithiolan-2-yliden malonate]",Total lipid,[1]; [7],107.6 ± 12.3 mg/g-liver
same,Triglyceride,[1]; [7],42.3 ± 6.3 mg/g-liver
same,Degree of fatty liver (histopathological examination),[1]; 50 mg/kg oral,± ± and ± ± ± + ±
same,Total lipid,[1]; [8],72.3 ± 9.6 mg/g-liver
same,Triglyceride,[1]; [8],23.6 ± 3.8 mg/g-liver
same,Degree of fatty liver (histopathological examination),[1]; 250 mg/kg oral,- - ± ± - ±
same,Concentration of Ethyl alcohol in Plasma,[2]; 0 min,9±4 ppm
same,Concentration of Ethyl alcohol in Plasma,[2]; 5 min,727±84 ppm
same,Concentration of Ethyl alcohol in Plasma,[2]; 15 min,715±146 ppm
same,Concentration of Ethyl alcohol in Plasma,[2]; 30 min,430±105 ppm
same,Concentration of Ethyl alcohol in Plasma,[2]; 60 min,13±11 ppm
same,Blood Sugar (percent of 0 min value),[3]; 0 min,100%
same,Blood Sugar,[3]; 0 min,134 ± 24.8 mg/dL
same,Blood Sugar,[3]; 30 min,258 ± 22.2 mg/dL
same,Blood Sugar,[3]; 60 min,232 ± 13.0 mg/dL
same,Blood Sugar,[3]; 90 min,190 ± 23.6 mg/dL
same,Blood Sugar,[3]; 120 min,152 ± 23.4 mg/dL
same,Blood Sugar (percent of 0 min value),[3]; 30 min,192%
same,Blood Sugar (percent of 0 min value),[3]; 60 min,173%
same,Blood Sugar (percent of 0 min value),[3]; 90 min,142%
same,Blood Sugar (percent of 0 min value),[3]; 120 min,113%
same,bile flow,[4]; 1 hour after treatment,110±4.2
same,excretion of biliary salt,[4]; 1 hour after treatment,105±13
same,bile flow,[4]; 2 hours after treatment,115±6.3
same,excretion of biliary salt,[4]; 2 hours after treatment,125±20
same,bile flow,[4]; 3 hours after treatment,110±7.2
same,excretion of biliary salt,[4]; 3 hours after treatment,132±26
same,bile flow,[4]; 4 hours after treatment,112±8.5
same,excretion of biliary salt,[4]; 4 hours after treatment,115±23
same,bile flow,[4]; 5 hours after treatment,92±4.7
same,excretion of biliary salt,[4]; 5 hours after treatment,81±7.2
same,Amount of total biliary salts excreted for 5 hours relative to control,[4]; versus control,1.61 times
same,Quantity of total excreted bile for 5 hours relative to control,[4]; versus control,1.15 times
same,LD50,[5],1350 mg/kg
same,Degree of cirrhosis (histopathological examination),[6]; 1 week,+ +++ + ++ +++
same,Degree of cirrhosis (histopathological examination),[6]; 2 weeks,++ ±
same,Degree of cirrhosis (histopathological examination),[6]; 8 weeks,+ ± and +++ ±
same,p-GOT activity,[6]; 1 week,277±135 Karmen unit
same,p-GPT activity,[6]; 1 week,81.6±25.9 Karmen unit
same,p-GOT activity,[6]; 2 weeks,96.8±2.6 Karmen unit
same,p-GPT activity,[6]; 2 weeks,28.8±3.0 Karmen unit
same,p-GOT activity,[6]; 4 weeks,64.0±5.5 Karmen unit
same,p-GPT activity,[6]; 4 weeks,40.6±3.8 Karmen unit
same,p-GOT activity,[6]; 8 weeks,91.8±7.2 Karmen unit
same,p-GPT activity,[6]; 8 weeks,32.8±6.1 Karmen unit
